Source: PubChem BioAssay AID2305 (GlaxoSmithKline (GSK), 2010)
pIC50: −log10 of the molar value.

system: P. falciparum 3D7 growth, pLDH absorbance; experiment: blood-stage malaria parasite growth potency – strain 3D7, dose response (AID 2305)

| Structure (SMILES) | pIC50 |
| --- | --- |
| CCN(CCS(C)(=O)=O)Cc1ccc(-c2ccc3ncnc(Nc4ccc(OCc5cccc(F)c5)c(Cl)c4)c3c2)o1 | 6.21 |
| Fc1cc(Cl)ccc1Nc1ccnc2cc(-c3ccc(CN4CCSCC4)o3)ccc12 | 6.11 |
| O=c1cc(NCCCNCc2scc3c(Cl)cc(C(F)(F)F)nc23)[nH]c2ccccc12 | 6.12 |
| O=C(c1ccc(F)c(F)c1)N1CCOC(CCN2CCC(c3ccccc3)CC2)(c2ccc(Cl)c(Cl)c2)C1 (stereo not drawn) | 5.98 |
| O=C(NC1CC1)c1ccc(N2CCC(Cc3ccccc3)CC2)c([N+](=O)[O-])c1 | 6.21 |
| O=C(c1cc(-c2ccccc2)n[nH]1)N1CCN(S(=O)(=O)c2ccc(Cl)s2)CC1 | 6.03 |
| COc1cc2nc(N3CCC(CNC(=O)c4ccc(-c5cccc(C#N)c5)cc4)CC3)nc(N)c2cc1OC | 6.85 |
| Cc1nc2ccc3ccc(CNc4ccc(C(=O)N[C@@H](CCC(=O)O)C(=O)N[C@@H](Cc5cccs5)C(=O)O)c(F)c4)cc3c2c(=O)[nH]1 | 6.10 |
| CCS(=O)(=O)c1ccc(-c2cnc3[nH]cc(-c4ccc(N)cc4)c3c2)cc1 | 6.07 |
| Nc1nc(N)c2c(Cl)c(N(Cc3ccccc3)Cc3ccccc3)ccc2n1 | 6.72 |
| CC(C)(CNCc1ccc(C(F)(F)F)cc1)c1nc(-c2ccc(Cl)c(O)c2)c(-c2ccnc(N)n2)[nH]1 | 6.82 |
| CC(C)(C)OC(=O)[C@H](CC(N)=O)NC(=O)c1ccc(-c2ccc(-c3nc4ccc(C(F)(F)F)cc4[nH]3)s2)cc1 | 6.57 |
| C(=Cc1ccccc1)C=NNc1ccnc2ccccc12 | 6.14 |
| N#Cc1ccc(N(CCOc2ccc3c(c2)CCC(=O)N3)Cc2ccccc2C(F)(F)F)cc1C(F)(F)F | 6.12 |
| O=C(NCC1CCC(C(=O)NC2CCCc3ccccc32)CC1)c1ccc(O)c(-c2ccc(Cl)c(Cl)c2)c1 (stereo not drawn) | 5.99 |
| N#CCCn1nc(-c2ccc(Cl)cc2)c2c(c1=O)CCCC2 | 6.05 |
| O=C(c1cc(-c2cccs2)[nH]n1)N1CCN(S(=O)(=O)c2ccc(Cl)s2)CC1 | 6.06 |
| COC(=O)c1cc(OC)c(OC)cc1NC(=O)NC12CC3CC(CC(C3)C1)C2 | 6.06 |
| Cc1ccc(C(=O)Nc2ccc(F)cc2)cc1-c1nc(NC2CC(C)(C)NC(C)(C)C2)nc2c1ccc(=O)n2-c1c(F)cccc1F | 6.17 |
| CN(C)CCOc1cc(NC(=O)Nc2ccc(-c3ccncc3)c(Cl)c2)ccc1I | 6.85 |
| CC(Cc1ccc(CSC(C)C)cc1)NCC(O)c1cccc(Cl)c1 (stereo not drawn) | 6.22 |
| CN1CCN(c2ccc(Nc3ncc(Cl)c(Nc4cccnc4C(N)=O)n3)cc2)CC1 | 6.82 |
| CCCN(Cc1nnc(-c2cccs2)o1)C(=O)C1COc2ccccc2O1 (stereo not drawn) | 6.07 |

| Structure (SMILES) | pIC50 |
| --- | --- |
| Nc1cccc(CNCc2cccc(-c3ccc(-c4nc5ccccc5[nH]4)s3)c2)c1 | 6.22 |
| Nc1ccc(-c2nc3ccc(Oc4ccc5nc(-c6ccc(N)cc6)[nH]c5c4)cc3[nH]2)cc1 | 6.14 |
| CNCCNCc1cccc(-c2ccc(-c3nc4ccc(C(F)(F)F)cc4[nH]3)s2)c1 | 6.09 |
| COc1ccccc1C1CN(CCNC(=O)c2ncc(C)[nH]2)Cc2ccccc2O1 (stereo not drawn) | 6.10 |
| Cc1nnc(N2C(=N)SC(=Cc3ccc(-c4ccc(OC(F)(F)F)cc4)o3)C2=O)s1 | 6.28 |
| COC(=O)C(Cc1ccccc1)NC(=O)NC1CCN(c2ccnc(Nc3ccc(F)cc3)n2)C1 (stereo not drawn) | 5.96 |
| COc1ccccc1N1CCN(C(C(=O)NCc2ccc(C)cc2)c2ccc(C)cc2)CC1 (stereo not drawn) | 6.03 |
| CC(C)CC(=O)Nc1cc(=O)[nH]c2nc(-c3ccccc3)nn12 | 6.46 |
| CC(C)CNCc1ccc(OCc2cccc(COc3ccc(CNCC(C)C)cc3I)c2)c(I)c1 | 6.11 |
| CC(C)Cn1c(Sc2ccc(C#N)c([N+](=O)[O-])c2)nnc1-c1ccccc1 | 5.96 |
| COc1ccc(NC(=O)[C@H](CC(C)C)Nc2ccnc(NCCc3ccc(F)cc3)n2)cc1 | 5.80 |
| CC(C)C1=NCc2ccc([N+](=O)[O-])cc2C(=O)N1 | 6.82 |
| CN1CCN(CC(O)CNC(=O)Nc2ccc(Cl)cc2)CC1 (stereo not drawn) | 6.64 |
| Cc1cccc2[nH]c(-c3ccc(-c4cccc(C(=O)NCCN5CCCC5)c4)s3)nc12 | 5.94 |
| CN1CCN(Cc2cc(NC(=O)c3ccc(-c4ccc(Cl)cc4Cl)cc3)ccc2-c2ccccc2)CC1 | 6.01 |
| Cc1cc(N[C@@H](Cc2ccccc2)C(=O)NCCOc2ccccc2)nc(NCCc2ccccc2)n1 | 5.99 |
| OCCOCn1cnc2cnc(N[C@H]3OC[C@H](O)[C@@H](O)[C@@H]3O)nc21 | 5.79 |
| NC(=O)C1CCN(Cc2ccc(-c3ccc(-c4nc5ccc(F)cc5[nH]4)cc3)cc2)CC1 | 6.09 |
| CCOc1cc(C)ccc1NC1CCN(CCCCNC(=O)c2ccc(NC(=O)c3ccc(Cl)cc3)cc2)CC1 | 6.15 |
| CCN(CC)C(=S)N=Nc1c(O)[nH]c2c(C)cccc12 | 6.07 |
| COc1cc(Nc2nccc(N3CCC(NC(=O)c4cccc(C#N)c4)C3)n2)cc(OC)c1OC (stereo not drawn) | 6.00 |
| CC(C)(C)OC(=O)n1cc(C2CCN(CCCC34CCCc5cccc(c53)NC4=O)CC2)c2ccncc21 (stereo not drawn) | 6.06 |
| Cc1ccc(N/C(N)=N/c2ncccc2OCc2c(F)cccc2Cl)cc1 | 5.92 |

| Structure (SMILES) | pIC50 |
| --- | --- |
| Cc1cccc2[nH]c(-c3ccc(-c4ccc(CN5CCN(CCN6CCOCC6)CC5)cc4)s3)nc12 | 6.62 |
| COc1ccc(N2CCN(CCCCNC(=O)c3ccc(NC(=O)c4ccc(Cl)c(Cl)c4)cc3)CC2)c(OC)c1 | 6.68 |
| Fc1ccc2nc(-c3cccc(-c4cccc(CNCC5CCCO5)c4)c3)[nH]c2c1 (stereo not drawn) | 6.29 |
| Clc1ccc2c(N3CCCNCC3)ccnc2c1 | 6.32 |
| COc1ccc(NC(=O)[C@H](Cc2ccccc2)Nc2cc(C)nc(NCCc3cccs3)n2)cc1 | 6.12 |
| O=C(NC1CC1)c1ccc(N2CCCC(COc3ccc4c(c3)CCCC4)C2)nc1 (stereo not drawn) | 5.97 |
| Oc1ccc(CCNc2nc(NCc3cccc(OCc4cccc(F)c4)c3)nc(N3CCNCC3)n2)cc1 | 5.87 |
| COc1cccc(C(C)(C)NC[C@@H](O)[C@H](Cc2ccccc2)NC(=O)c2cc(C3CCCC3)cc(N3CCCCS3(=O)=O)c2F)c1 | 7.52 |
| Nc1nc(Nc2cccc(Cl)c2)ncc1C(=O)NCc1ccncc1 | 6.08 |
| Cc1cccc2[nH]c(-c3ccc(-c4cccc(CN5CCN(CC6CCCN(C)C6)CC5)c4)s3)nc12 (stereo not drawn) | 6.92 |
| CN1CCC(NCc2ccc(-c3cccc(S(=O)(=O)NCc4ccccc4)c3)cc2)CC1 | 6.49 |
| O=C(COc1ccc(Cl)c(Cl)c1)NCCCCCN1CCCN(C(=O)Nc2cc(Cl)cc(Cl)c2)CC1 | 5.94 |
| CCCCCCOc1ccc2ccccc2c1CNCCCCCCNCc1c(OCCCCCC)ccc2ccccc12 | 5.97 |
| N/C(=N/C(=NCCCCCCN=C(/N=C(/N)Nc1ccc(Cl)cc1)N1CCCCC1)N1CCCCC1)Nc1ccc(Cl)cc1 | 6.59 |
| COc1ccc2nc3cc(Cl)ccc3c(Nc3ccc(O)c(CNC(C)C)c3)c2c1 | 6.85 |
| Cc1noc(C)c1-c1cccc(CNCc2ccc(-c3ccc(-c4nc5ccc(C(F)(F)F)cc5[nH]4)cc3)cc2)c1 | 6.77 |
| CC(C)NCc1cccc(-c2ccc(NC(=O)c3cccc(C#N)c3)cc2)c1 | 6.49 |
| Oc1cc(Nc2ccnc3cc(-c4cccc(CN5CCCCC5)c4)ccc23)c(F)cc1Cl | 7.00 |
| O=C(Nc1ccncc1)c1cn(-c2ccccc2)nc1-c1cccs1 | 6.01 |
| Cc1cccc2[nH]c(-c3ccc(-c4cccc(NC(=O)Nc5cccc(C#N)c5)c4)cc3)nc12 | 6.27 |
| CCN(CC)CCN(Cc1ccc(-c2ccc(C(F)(F)F)cc2)nc1)C(=O)Cn1cc(Cc2cnn(C)c2)c(=O)n2nc(-c3ccccc3)cc12 | 6.00 |
| CCOc1cc(Cc2cnc(N)nc2N)ccc1OC | 5.90 |
